Patent US9481669B2, “Pladienolide pyridine compounds and methods of use” (Eisai R&D Management Co., Ltd., priority 2014, dated 2016)
Entries after “also recorded” stand apart in the source; their conditions may differ. Like-named read-outs stand apart in the source and are kept apart here.

Key:
[1] = system: Pre-EIF4A1 and SLC25A19 expression in Nalm-6 SF3B1^K700E xenograft tumors; experiment: PK/PD testing in Nalm-6 mouse xenograft model; assay type: in vivo, CB17-SCID mice; details: single oral dose
Description: Pharmacokinetics (PK)/pharmacodynamics (PD) of Compound 2 were also analyzed in the Nalm-6 mouse xenograft model. Nalm-6 SF3B1^K700E isogenic cells (human pre B-cell line, 10×10^6 cells) were subcutaneously implanted into the flank of female CB17-SCID mice. Mice were administered a single oral dose of 10 mg/kg Compound 2 (10% ethanol, 5% TWEEN-80, 85% saline), and the tumors were collected at the indicated times post administration for analysis.
RNA was isolated using RiboPure™ RNA purification kit (Ambion®) and used for qPCR analysis. The RNA was retrotranscribed according to the instructions of the SuperScript® VILO™ cDNA synthesis kit (Invitrogen™), and 0.04 μl of cDNA was used for quantitative PCR (qPCR). qPCR for pre-mRNA EIF4A1 and mature mRNA […] and PK evaluation were performed as reported previously (Eskens, F. A. et al. Phase I pharmacokinetic and pharmacodynamic study of the first-in-class spliceosome inhibitor E7107 in patients with advanced solid tumors. Clin Cancer Res. 19, 6296-6304, doi:10.1158/1078-0432.CCR-13-0485 (2013)). All animal studies were carried out according to the H3 Biomedicine Guide for the Care and Use of Laboratory Animals.
Pharmacokinetics (PK)/pharmacodynamics (PD) of Compound 1 were also analyzed in the Nalm-6 mouse xenograft model. […]

[2] = system: Panc 05.04 cells (mt SF3B1; Q699H and K700E mutations in SF3B1); experiment: Cell viability assay (CellTiter-Glo, 72 hr), Panc 05.04; assay type: cell-based; details: for GI50 / Emax: Panc 05.04, 72 hr; for Emax: negative value indicates cellular lethality
Description: Cells (WiDr and Panc05.04 obtained from ATCC) were seeded in 96-well plates, with 2000 cells/100 μL/well, and incubated overnight. Spent media was removed, and fresh media containing 9 different concentrations of compound (100 μL/well) were added, with DMSO concentration from compound stock solution adjusted to be 0.1%. Each compound treatment was done in duplicate or triplicate at each concentration.
Another plate with cells seeded was dedicated as a time zero (Tz) plate, to which was added 0.1% DMSO in media (100 μL/well) followed by CellTiter-Glo® reagent (Promega Corporation, Madison, Wis.) (50 μL/well) for ATP measurement as a surrogate of cell viability. Average value from measurement of multiple wells of this plate is used as Tz.
Compound-treated plates were incubated for 72 hr at 37° C. Then, CellTiter-Glo® reagent (50 μL/well) was added and ATP was measured. Average value from measurement of the duplicate or triplicate compound-treated wells is used as Ti, and seeded plates with medium having 0.1% DMSO without compound is used as control growth (C).
Percentage growth inhibition/Percentage viability was calculated as: [(Ti−Tz)/(C−Tz)]×100 for concentrations for which Ti>/=Tz [(Ti−Tz)/Tz]×100 for concentrations for which Ti<Tz. *time zero (Tz), control growth (C), and test growth in the presence of compound (Ti) Percentage growth inhibition/Percentage viability are plotted versus compound concentration to determine Emax.
Growth inhibition of 50% (GI50) was calculated from [(Ti−Tz)/(C−Tz)]×100=50, which is the drug concentration resulting in a 50% reduction in the net increase of ATP in control growth (C) during the compound treatment.
Emax refers to the maximum achievable response to a compound in a tested dose range, with a negative value indicating cellular lethality. A larger negative Emax value indicates greater cellular lethality for a particular compound.

[3] = Mouse pharmacokinetic (PK) study; assay type: in vivo, CD-1 mice; details: for AUC0-inf/D / Cmax/D / AUC(0-inf) / AUC(0-t) / half-life / clearance / Vd / Cmax / Tmax / bioavailability / BA (%) / AUC: CD-1 mice; for oral bioavailability and pharmacokinetic properties (in words): mouse model, IV and PO dosing; for AUC(0-inf) / AUC(0-t) / half-life / clearance / Vd / Cmax / Tmax / bioavailability / AUC: mouse, plasma; for Vd: read-out: Vss; for AUC: read-out: AUCfinite
Description: (§1) Compound 2 was dosed at 5 mg/kg IV (intravenous) or 10 mg/kg PO (oral administration) to CD-1 mice. Following administration, blood samples were collected at pre-determined time points from five mice via serial bleeding of the tail vein. Blood was collected at 0.083 (0.167 PO only), 0.5, 1, 2, 4, 6, 8, and 24 hours post administration. The blood samples were centrifuged at 5000 RPM for 5 minutes to collect plasma within 30 minutes of blood collection. After extraction, samples were assayed using LCMS. PK parameters were calculated using non-compartmental analysis in WinNonlin v6.3.
as §1, with “Compound 1” for “Compound 2”, “IV” for “IV (intravenous)”, “or 12” for “or 10”, “PO” for “PO (oral administration)”, “bleeding from” for “bleeding of”, “hours post-dose.” for “hours post administration.”
Compound 3 was dosed at 5.964 mg/kg IV or 13.307 mg/kg PO to CD-1 mice. Following administration, blood samples were collected at pre-determined time points from five mice via serial bleeding from the tail vein. Blood was collected at 0.083 (0.167 PO only), 0.5, 1, 2, 4, 6, 8, and 24 hours post-dose. The blood samples were centrifuged at 5000 RPM for 5 minutes to collect plasma within 30 minutes of blood collection. After extraction, samples were assayed using LCMS. PK parameters were calculated using non-compartmental analysis in WinNonlin v6.3.
Compound 4 was dosed at 5 mg/kg IV or 10 mg/kg PO to CD-1 mice. Following administration, blood samples were collected at pre-determined time-points from five mice via serial bleeding from the tail vein. Blood was collected at 0.083 (0.167 PO only), 0.5, 1, 2, 4, 6, 8, and 24 hours post-dose. The blood samples will be centrifuged at 5000 RPM for 5 minutes to collect plasma within 30 minutes of blood collection. After extraction, samples were assayed using LCMS. PK parameters were calculated using non-compartmental analysis in WinNonlin v6.3.

C/C(=C\C=C\[C@@H](C)c1ccccn1)[C@H]1OC(=O)C[C@H](O)CC[C@@](C)(O)[C@@H](OC(=O)N2CCN(C3CCCCCC3)CC2)/C=C/[C@@H]1C [Compound 1, (2S,3S,6S,7R,10R,E)-7,10-dihydroxy-3,7-dimethyl-12-oxo-2-((R,2E,4E)-6-(pyridin-2-yl)hepta-2,4-dien-2-yl)oxacyclododec-4-en-6-yl 4-cycloheptylpiperazine-1-carboxylate]
PD responses (fold change in Pre-EIF4A1 and SLC25A19 expression in tumor) [1]: showed PD responses at a tolerated dose
GI50 [2]: 19.5 nM
Emax [2]: -86.8%
cellular lethality (Emax comparison) ([2]; Panc 05.04 cells): greater cellular lethality than Compound 2
AUC0-inf/D ([3]; 5 mg/kg IV (Table 5)): 934.15 ng · h/mL/D
AUC0-inf/D ([3]; 12 mg/kg PO): 487.06 ng · h/mL/D
Cmax/D ([3]; 12 mg/kg PO): 141.47 ng/mL/D
oral bioavailability and pharmacokinetic properties (in words) [3]: showed oral bioavailability and favorable pharmacokinetic properties; also recorded: possess oral bioavailability and favorable pharmacokinetic properties
AUC(0-inf) ([3]; 5 mg/kg IV (Table 5)): 4670 ng·h/mL
AUC(0-t) ([3]; 5 mg/kg IV (Table 5)): 4450 ng·h/mL
half-life ([3]; 5 mg/kg IV (Table 5)): 2.54 h
clearance ([3]; 5 mg/kg IV (Table 5), read-out: CL (converted)): 17.8 mL/min/kg
Vd ([3]; 5 mg/kg IV (Table 5)): 2.1 L/kg
AUC(0-inf) ([3]; 12 mg/kg PO): 6230 ng·h/mL
AUC(0-t) ([3]; 12 mg/kg PO): 6210 ng·h/mL
Cmax ([3]; 12 mg/kg PO): 1810 ng/mL
Tmax ([3]; 12 mg/kg PO): 0.5 h
bioavailability ([3]; 12 mg/kg PO): 52.1%
half-life ([3]; 12 mg/kg PO): 3 h

C/C(=C\C=C\[C@@H](C)c1ccccn1)[C@H]1OC(=O)C[C@H](O)CC[C@@](C)(O)[C@@H](OC(=O)N2CCN(C)CC2)/C=C/[C@@H]1C [Compound 2, (2S,3 S,6S,7R,10R,E)-7,10-dihydroxy-3,7-dimethyl-12-oxo-2-((R,2E,4E)-6-(pyridin-2-yl)hepta-2,4-dien-2-yl)oxacyclododec-4-en-6-yl 4-methylpiperazine-1-carboxylate]
PD responses (fold change in Pre-EIF4A1 and SLC25A19 expression in tumor) [1]: showed PD responses at a tolerated dose
GI50 [2]: 32.7 nM
Emax [2]: -66.1%
AUC0-inf/D ([3]; 5 mg/kg IV): 632.71 ng · h/mL/D
AUC0-inf/D ([3]; 10 mg/kg PO): 254.49 ng · h/mL/D
Cmax/D ([3]; 10 mg/kg PO): 84.07 ng/mL/D
oral bioavailability and pharmacokinetic properties (in words) [3]: shows oral bioavailability and favorable pharmacokinetic properties; also recorded: possess oral bioavailability and favorable pharmacokinetic properties
AUC(0-inf) ([3]; 5 mg/kg IV): 3160 ng·h/mL
AUC(0-t) ([3]; 5 mg/kg IV): 3160 ng·h/mL
half-life ([3]; 5 mg/kg IV): 3.88 h
clearance ([3]; 5 mg/kg IV, read-out: CL (converted)): 26.3 mL/min/kg
Vd ([3]; 5 mg/kg IV): 2.37 L/kg
AUC(0-inf) ([3]; 10 mg/kg PO): 2540 ng·h/mL
AUC(0-t) ([3]; 10 mg/kg PO): 2510 ng·h/mL
Cmax ([3]; 10 mg/kg PO): 841 ng/mL
Tmax ([3]; 10 mg/kg PO): 1 h
bioavailability ([3]; 10 mg/kg PO): 40.2%
half-life ([3]; 10 mg/kg PO): 4.04 h

C/C(=C\C=C\[C@@H](C)c1ccccn1)[C@H]1OC(=O)C[C@H](O)CC[C@@](C)(O)[C@@H](OC(=O)N2CCC(N3CCCCCC3)CC2)/C=C/[C@@H]1C [Compound 3, (2S,3S,6S,7R,10R,E)-7,10-dihydroxy-3,7-dimethyl-12-oxo-2-((R,2E,4E)-6-(pyridin-2-yl)hepta-2,4-dien-2-yl)oxacyclododec-4-en-6-yl 4-(azepan-1-yl)piperidine-1-carboxylate]
GI50 [2]: 20.8 nM
Emax [2]: -90.8%
AUC0-inf/D ([3]; 5.964 mg/kg IV): 1.047 μg/mL * hr/D
AUC0-inf/D ([3]; 13.307 mg/kg PO): 0.615 μg/mL * hr/D
BA (%) ([3]; 13.307 mg/kg PO): 58.758%
oral bioavailability and pharmacokinetic properties (in words) [3]: showed oral bioavailability and favorable pharmacokinetic properties; also recorded: possess oral bioavailability and favorable pharmacokinetic properties
AUC(0-inf) ([3]; 5.964 mg/kg IV): 6240 ng·h/mL
half-life ([3]; 5.964 mg/kg IV): 3.66 h
AUC ([3]; 5.964 mg/kg IV): 6210 ng·h/mL
clearance ([3]; 5.964 mg/kg IV, read-out: CLtot (converted)): 15.9 mL/min/kg
Vd ([3]; 5.964 mg/kg IV): 2.98 L/kg
AUC(0-inf) ([3]; 13.307 mg/kg PO): 8190 ng·h/mL
Cmax ([3]; 13.307 mg/kg PO): 1570 ng/mL
Tmax ([3]; 13.307 mg/kg PO): 2 h
half-life ([3]; 13.307 mg/kg PO): 3.32 h
AUC ([3]; 13.307 mg/kg PO): 8140 ng·h/mL

C/C(=C\C=C\[C@@H](C)c1ccccn1)[C@H]1OC(=O)C[C@H](O)CC[C@@](C)(O)[C@@H](OC(=O)N2CCC(N3CCCCC3)CC2)/C=C/[C@@H]1C [Compound 4, (2S,3 S,6S,7R,10R,E)-7,10-dihydroxy-3,7-dimethyl-12-oxo-2-((R,2E,4E)-6-(pyridin-2-yl)hepta-2,4-dien-2-yl)oxacyclododec-4-en-6-yl[1,4′-bipiperidine]-1′-carboxylate]
GI50 [2]: 11.8 nM
Emax [2]: -86.2%
AUC0-inf/D ([3]; 5 mg/kg IV (Table 7)): 1.325 ug/mL * hr/D
AUC0-inf/D ([3]; 10 mg/kg PO (Table 7)): 0.795 ug/mL * hr/D
BA (%) ([3]; 10 mg/kg PO (Table 7)): 60.024%
oral bioavailability and pharmacokinetic properties (in words) [3]: showed oral bioavailability and favorable pharmacokinetic properties; also recorded: possess oral bioavailability and favorable pharmacokinetic properties
AUC(0-inf) ([3]; 5 mg/kg IV (Table 7)): 6620 ng·h/mL
AUC(0-t) ([3]; 5 mg/kg IV (Table 7)): 6610 ng·h/mL
half-life ([3]; 5 mg/kg IV (Table 7)): 3.01 h
clearance ([3]; 5 mg/kg IV (Table 7), read-out: CLtot (converted)): 12.6 mL/min/kg
Vd ([3]; 5 mg/kg IV (Table 7)): 1.89 L/kg
AUC(0-inf) ([3]; 10 mg/kg PO (Table 7)): 7950 ng·h/mL
AUC(0-t) ([3]; 10 mg/kg PO (Table 7)): 7910 ng·h/mL
Cmax ([3]; 10 mg/kg PO (Table 7)): 1250 ng/mL
Tmax ([3]; 10 mg/kg PO (Table 7)): 2 h
half-life ([3]; 10 mg/kg PO (Table 7)): 2.98 h
